Measured values reported in PubChem BioAssay AID248 (DTP/NCI, 2004).
Several values for one entry are separate records, joined by “and”; a condition that tells them apart may be missing. Identical values can stand only once. Toxic doses and inconclusive results are not listed.

System: L1210 leukemia ip in BDF1 mice, survival T/C
Experiment: NCI In Vivo Anticancer Drug Screen. Data for tumor model L1210 Leukemia (intraperitoneal) in B6D2F1 (BDF1) mice
Settings: endpoint: mean survival time, higher = longer survival
In short: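 In this screen, tumor-bearing mice given compound are compared to those given vehicle, and their survival values are reported as a treated-to-control quotient.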

[1] = dose: 100.0 mg/kg/injection, schedule: Q01DX001 (ip), vehicle: saline
[2] = dose: 200.0 mg/kg/injection, schedule: Q01DX001 (ip), vehicle: saline
[3] = dose: 400.0 mg/kg/injection, schedule: Q01DX001 (ip), vehicle: saline
[4] = dose: 100.0 mg/kg/injection, schedule: Q01DX001 (ip), vehicle: carboxymethylcellulose (CMC)
[5] = dose: 200.0 mg/kg/injection, schedule: Q01DX001 (ip), vehicle: carboxymethylcellulose (CMC)
[6] = dose: 400.0 mg/kg/injection, schedule: Q01DX001 (ip), vehicle: carboxymethylcellulose (CMC)
[7] = dose: 200.0 mg/kg/injection, schedule: Q01DX009 (ip), vehicle: saline with Tween-80
[8] = dose: 400.0 mg/kg/injection, schedule: Q01DX009 (ip), vehicle: saline with Tween-80
[9] = dose: 100.0 mg/kg/injection, schedule: Q04DX003 (ip), vehicle: Klucel (hydroxypropylcellulose) (HPC)
[10] = dose: 200.0 mg/kg/injection, schedule: Q04DX003 (ip), vehicle: Klucel (hydroxypropylcellulose) (HPC)
[11] = dose: 400.0 mg/kg/injection, schedule: Q04DX003 (ip), vehicle: Klucel (hydroxypropylcellulose) (HPC)
[12] = dose: 100.0 mg/kg/injection, schedule: Q04DX003 (ip), vehicle: saline
[13] = dose: 100.0 mg/kg/injection, schedule: Q01DX009 (ip), vehicle: saline with Tween-80
[14] = dose: 50.0 mg/kg/injection, schedule: Q01DX001 (ip), vehicle: saline
[15] = dose: 100.0 mg/kg/injection, schedule: Q04DX003 (ip), vehicle: saline with Tween-80
[16] = dose: 200.0 mg/kg/injection, schedule: Q04DX003 (ip), vehicle: saline with Tween-80
[17] = dose: 400.0 mg/kg/injection, schedule: Q04DX003 (ip), vehicle: saline with Tween-80

## CSc1c(Cl)c(C(Cl)(Cl)Cl)nc2ccccc12
dose: 12.5 mg/kg/injection, schedule: Q01DX009 (ip), vehicle: saline with Tween-80
  T/C: 93 % of control
dose: 25.0 mg/kg/injection, schedule: Q01DX009 (ip), vehicle: saline with Tween-80
  T/C: 93 % of control
dose: 50.0 mg/kg/injection, schedule: Q01DX009 (ip), vehicle: saline with Tween-80
  T/C: 103 % of control and 104 % of control

## Cc1cc2nc3c(nc2cc1C)C1CC(Br)CCC1N3 (centres undefined)
[1]
  T/C: 97 % of control
[2]
  T/C: 95 % of control
[3]
  T/C: 91 % of control

## Cc1ccc(N)c(F)c1
dose: 100.0 mg/kg/injection, schedule: Q04DX002 (sc), vehicle: olive oil, sesame oil, peanut oil
  T/C: 93 % of control
dose: 200.0 mg/kg/injection, schedule: Q04DX002 (sc), vehicle: olive oil, sesame oil, peanut oil
  T/C: 98 % of control
dose: 400.0 mg/kg/injection, schedule: Q04DX002 (sc), vehicle: olive oil, sesame oil, peanut oil
  T/C: 104 % of control

## CC1([N+](=O)[O-])COP(=O)(Nc2cccc(Br)c2)OC1 (centres undefined)
[4]
  T/C: 96 % of control
[5]
  T/C: 94 % of control
[6]
  T/C: 100 % of control

## O=C(NCCCl)NC1CS(=O)(=O)CS(=O)(=O)C1
dose: 75.0 mg/kg/injection, schedule: Q01DX001 (ip), vehicle: other
  T/C: 104 % of control

## CCOC(=O)c1ccc(NC(=S)NC(=O)c2ccc(Cl)cc2Cl)cc1
[7]
  T/C: 88 % of control
[8]
  T/C: 88 % of control

## CC1(CCl)OCCO1
dose: 100.0 mg/kg/injection, schedule: Q01DX009 (ip), vehicle: Klucel (hydroxypropylcellulose) (HPC)
  T/C: 91 % of control
[9]
  T/C: 100 % of control
dose: 200.0 mg/kg/injection, schedule: Q01DX009 (ip), vehicle: Klucel (hydroxypropylcellulose) (HPC)
  T/C: 96 % of control
[10]
  T/C: 101 % of control
[11]
  T/C: 98 % of control

## CC(C)(Oc1ccc(Cl)cc1)C(=O)O
[1]
  T/C: 101 % of control
[2]
  T/C: 101 % of control
[3]
  T/C: 98 % of control

## CC(CC1c2ccccc2CCc2ccccc21)CN(C)C (centres undefined)
dose: 6.25 mg/kg/injection, schedule: Q01DX009 (ip), vehicle: saline
  T/C: 95 % of control
dose: 12.5 mg/kg/injection, schedule: Q01DX009 (ip), vehicle: saline
  T/C: 104 % of control
dose: 25.0 mg/kg/injection, schedule: Q01DX009 (ip), vehicle: saline
  T/C: 95 % of control
dose: 25.0 mg/kg/injection, schedule: Q04DX003 (ip), vehicle: saline
  T/C: 102 % of control
dose: 50.0 mg/kg/injection, schedule: Q01DX009 (ip), vehicle: saline
  T/C: 101 % of control
dose: 50.0 mg/kg/injection, schedule: Q04DX003 (ip), vehicle: saline
  T/C: 107 % of control
[12]
  T/C: 120 % of control

## Cc1ccc(N2CCN(C3=CCC(C(C)C)CC3)CC2)cc1Cl (centres undefined)
[13]
  T/C: 106 % of control

## CC1NC(=S)NC(=O)C1CCSC(=N)N (centres undefined)
[1]
  T/C: 104 % of control
[2]
  T/C: 98 % of control

## O=C(COc1cccc(Cl)c1)Nc1ccccc1S(=O)(=O)F
dose: 100.0 mg/kg/injection, schedule: Q04DX003 (ip), vehicle: other
  T/C: 89 % of control
dose: 200.0 mg/kg/injection, schedule: Q04DX003 (ip), vehicle: other
  T/C: 87 % of control
dose: 400.0 mg/kg/injection, schedule: Q04DX003 (ip), vehicle: other
  T/C: 98 % of control

## ClC1=C(Cl)C2(Cl)CC(Cl)C1C2(Cl)Cl (centres undefined)
dose: 10.0 mg/kg/injection, schedule: Q01DX001 (ip), vehicle: acetone
  T/C: 105 % of control
dose: 20.0 mg/kg/injection, schedule: Q01DX001 (ip), vehicle: acetone
  T/C: 105 % of control

## Cc1cccc(C)c1C1=CCCCC1
[14]
  T/C: 108 % of control
[1]
  T/C: 104 % of control
[2]
  T/C: 104 % of control
[3]
  T/C: 110 % of control

## CC(=O)OCC1OC(n2c(=S)[nH]c3c(N)ncnc32)C(OC(C)=O)C1OC(C)=O (centres undefined)
[14]
  T/C: 98 % of control
[1]
  T/C: 98 % of control
[2]
  T/C: 95 % of control
[3]
  T/C: 98 % of control

## COc1cc(N(CCCl)CCCl)c(OC)cc1C=Nc1cccc(Br)c1
dose: 26.6 mg/kg/injection, schedule: Q01DX009 (ip), vehicle: carboxymethylcellulose (CMC)
  T/C: 105 % of control
dose: 40.0 mg/kg/injection, schedule: Q01DX009 (ip), vehicle: carboxymethylcellulose (CMC)
  T/C: 96 % of control
[4]
  T/C: 120 % of control
[5]
  T/C: 107 % of control
dose: 266.0 mg/kg/injection, schedule: Q01DX001 (ip), vehicle: carboxymethylcellulose (CMC)
  T/C: 157 % of control

## CC(C)C(=O)Nc1ccc(S(=O)(=O)NCCO)cc1
[15]
  T/C: 97 % of control
[16]
  T/C: 92 % of control
[17]
  T/C: 92 % of control

## C/C(CCC(=O)O)=N/Nc1nnc(N/N=C(/C)CCC(=O)O)c2ccccc12
[14]
  T/C: 102 % of control
[1]
  T/C: 102 % of control
[2]
  T/C: 102 % of control
[3]
  T/C: 120 % of control

## CCNC(C)(C)C(SSSC(c1cccs1)C(C)(C)NCC)c1cccs1 (centres undefined)
dose: 25.0 mg/kg/injection, schedule: Q01DX009 (ip), vehicle: other
  T/C: 108 % of control
dose: 50.0 mg/kg/injection, schedule: Q01DX009 (ip), vehicle: other
  T/C: 103 % of control
dose: 100.0 mg/kg/injection, schedule: Q01DX009 (ip), vehicle: other
  T/C: 97 % of control
[12]
  T/C: 98 % of control

## COC(=O)C(Cc1ccccc1)NC(=O)/C=C/N(CCCl)CCCl (centres undefined)
dose: 10.0 mg/kg/injection, schedule: Q01DX Z (ip), vehicle: other
  T/C: 97 % of control
dose: 20.0 mg/kg/injection, schedule: Q01DX Z (ip), vehicle: other
  T/C: 96 % of control
dose: 40.0 mg/kg/injection, schedule: Q01DX Z (ip), vehicle: other
  T/C: 89 % of control
dose: 80.0 mg/kg/injection, schedule: Q01DX Z (ip), vehicle: other
  T/C: 102 % of control

## CCC(C(=O)O)N(C)Cc1ccccc1 (centres undefined)
[13]
  T/C: 92 % of control
[7]
  T/C: 89 % of control
[8]
  T/C: 89 % of control

## CCCCCCCCC1OCC(C)(C)C(C(C)C)O1 (centres undefined)
dose: 50.0 mg/kg/injection, schedule: Q01DX001 (ip), vehicle: carboxymethylcellulose (CMC)
  T/C: 102 % of control
[4]
  T/C: 104 % of control
[5]
  T/C: 107 % of control
[6]
  T/C: 104 % of control

## COC1(c2ccccc2)c2cc3ccccc3cc2C(OC)(c2ccccc2)c2cc3ccccc3cc21 (centres undefined)
dose: 100.0 mg/kg/injection, schedule: Q04DX002 (ip), vehicle: Klucel (hydroxypropylcellulose) (HPC)
  T/C: 98 % of control
dose: 200.0 mg/kg/injection, schedule: Q04DX002 (ip), vehicle: Klucel (hydroxypropylcellulose) (HPC)
  T/C: 109 % of control
dose: 400.0 mg/kg/injection, schedule: Q04DX002 (ip), vehicle: Klucel (hydroxypropylcellulose) (HPC)
  T/C: 95 % of control

## Cc1cc(C(=O)O)c(C)[nH]1
dose: 25.0 mg/kg/injection, schedule: Q04DX003 (ip), vehicle: Klucel (hydroxypropylcellulose) (HPC)
  T/C: 105 % of control
dose: 50.0 mg/kg/injection, schedule: Q04DX003 (ip), vehicle: Klucel (hydroxypropylcellulose) (HPC)
  T/C: 100 % of control
dose: 75.0 mg/kg/injection, schedule: Q04DX003 (ip), vehicle: Klucel (hydroxypropylcellulose) (HPC)
  T/C: 101 % of control
[9]
  T/C: 93 % of control
[10]
  T/C: 95 % of control
[11]
  T/C: 101 % of control

## NN(CC(=O)O)c1ccccc1
[13]
  T/C: 100 % of control
[7]
  T/C: 105 % of control
[8]
  T/C: 94 % of control

## C[N+](C)(C)CCCCCCCCCC[N+](C)(C)CCCCCCCCCC[N+](C)(C)CCCCCCCCCC[N+](C)(C)C
dose: 25.0 micrograms/kg/injection, schedule: Q04DX003 (ip), vehicle: Klucel (hydroxypropylcellulose) (HPC)
  T/C: 96 % of control
dose: 50.0 micrograms/kg/injection, schedule: Q04DX003 (ip), vehicle: Klucel (hydroxypropylcellulose) (HPC)
  T/C: 97 % of control
dose: 100.0 micrograms/kg/injection, schedule: Q04DX003 (ip), vehicle: Klucel (hydroxypropylcellulose) (HPC)
  T/C: 97 % of control

## Cc1ccccc1OC(=O)Nc1ccc(C(=O)O)c(O)c1
dose: 100.0 mg/kg/injection, schedule: Q01DX001 (ip), vehicle: saline with Tween-80
  T/C: 93 % of control
[13]
  T/C: 94 % of control
dose: 200.0 mg/kg/injection, schedule: Q01DX001 (ip), vehicle: saline with Tween-80
  T/C: 96 % of control
[7]
  T/C: 97 % of control
dose: 400.0 mg/kg/injection, schedule: Q01DX001 (ip), vehicle: saline with Tween-80
  T/C: 93 % of control

## C/C(=C\c1c[nH]c2ccccc12)[N+](=O)[O-]
[13]
  T/C: 90 % of control
[15]
  T/C: 97 % of control
[7]
  T/C: 100 % of control
[16]
  T/C: 97 % of control
[8]
  T/C: 100 % of control
[17]
  T/C: 90 % of control
